Values of other authors in patent US5300300A, “Controlled release gastroresistant pharmaceutical formulations for oral administration containing bile acids and their salts” (Alfa Wassermann S.p.A., priority 1991, dated 1994).

Tests used:
[1] = complete solubilization takes place only at this pH

C[C@H](CCC(=O)O)[C@H]1CC[C@H]2[C@@H]3[C@@H](O)C[C@@H]4C[C@H](O)CC[C@]4(C)[C@H]3CC[C@]12C [ursodeoxycholic acid]
dissolution in the intestine (after having crossed the stomach unabsorbed and undissolved): dissolve very slowly in the intestine | intestinal pH needed for complete solubilization and absorption (intestinal pH, completely solubilized and absorbed only when exceeded): > 8.4 pH | pH of complete solubilization [1]: 8.47 pH
